Where a SMILES comes first, the peptide text is derived from it. Bridges are numbered along the chain shown (N, C = ends). [ ]: non-standard residue; d: D form. The star is where a group is joined. Ileψ(thiazoline)Cys = CC[C@H](C)[C@H](N)C1=N[C@H](C(=O)*)CS1; dOrn = NCCC[C@@H](N)C(=O)O
Assays:
[1] = target: Tyrosine-protein kinase Lck (Homo sapiens, UniProt P06239); test: DRUGMATRIX: Protein Tyrosine Kinase, LCK enzyme inhibition (substrate: Poly(Glu:Tyr)); type: cell-based, Insect cells; settings: insect cells; Not Active = under 50% inhibition at 10 µM
Chain of Tyrosine-protein kinase Lck (P06239 whole entry): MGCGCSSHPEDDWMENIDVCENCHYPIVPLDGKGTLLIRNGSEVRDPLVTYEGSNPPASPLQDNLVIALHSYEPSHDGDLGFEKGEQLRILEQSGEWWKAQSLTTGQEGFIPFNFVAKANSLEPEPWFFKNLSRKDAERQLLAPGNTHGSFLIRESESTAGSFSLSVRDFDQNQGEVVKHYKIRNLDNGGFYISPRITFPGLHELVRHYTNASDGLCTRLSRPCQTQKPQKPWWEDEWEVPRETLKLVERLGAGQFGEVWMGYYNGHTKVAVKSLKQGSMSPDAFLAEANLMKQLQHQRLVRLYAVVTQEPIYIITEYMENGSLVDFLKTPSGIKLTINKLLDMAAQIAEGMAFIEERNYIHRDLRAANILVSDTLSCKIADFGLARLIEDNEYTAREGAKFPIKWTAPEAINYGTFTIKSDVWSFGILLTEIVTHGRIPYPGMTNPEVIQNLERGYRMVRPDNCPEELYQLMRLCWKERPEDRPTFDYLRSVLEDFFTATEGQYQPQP

[2] = target: T1, C-X-C chemokine receptor type 1 (Homo sapiens, UniProt P25024); note: in other assays of this panel Not Active means under 50% inhibition at 10 µM
T1 sequence (P25024 whole entry): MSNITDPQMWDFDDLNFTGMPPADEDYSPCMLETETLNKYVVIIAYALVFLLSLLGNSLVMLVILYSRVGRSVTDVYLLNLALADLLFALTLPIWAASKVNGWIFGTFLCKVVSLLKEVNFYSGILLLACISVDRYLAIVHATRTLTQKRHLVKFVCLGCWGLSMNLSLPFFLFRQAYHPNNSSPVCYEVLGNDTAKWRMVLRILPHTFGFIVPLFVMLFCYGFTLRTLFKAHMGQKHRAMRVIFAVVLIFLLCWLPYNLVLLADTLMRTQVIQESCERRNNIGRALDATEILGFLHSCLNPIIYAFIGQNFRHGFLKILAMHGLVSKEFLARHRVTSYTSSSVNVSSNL

Estrogen receptor = target: T2, Estrogen receptor (Homo sapiens, UniProt P03372); settings: sf9; note: in other assays of this panel Not Active means under 50% inhibition at 10 µM
T2 sequence (P03372 whole entry): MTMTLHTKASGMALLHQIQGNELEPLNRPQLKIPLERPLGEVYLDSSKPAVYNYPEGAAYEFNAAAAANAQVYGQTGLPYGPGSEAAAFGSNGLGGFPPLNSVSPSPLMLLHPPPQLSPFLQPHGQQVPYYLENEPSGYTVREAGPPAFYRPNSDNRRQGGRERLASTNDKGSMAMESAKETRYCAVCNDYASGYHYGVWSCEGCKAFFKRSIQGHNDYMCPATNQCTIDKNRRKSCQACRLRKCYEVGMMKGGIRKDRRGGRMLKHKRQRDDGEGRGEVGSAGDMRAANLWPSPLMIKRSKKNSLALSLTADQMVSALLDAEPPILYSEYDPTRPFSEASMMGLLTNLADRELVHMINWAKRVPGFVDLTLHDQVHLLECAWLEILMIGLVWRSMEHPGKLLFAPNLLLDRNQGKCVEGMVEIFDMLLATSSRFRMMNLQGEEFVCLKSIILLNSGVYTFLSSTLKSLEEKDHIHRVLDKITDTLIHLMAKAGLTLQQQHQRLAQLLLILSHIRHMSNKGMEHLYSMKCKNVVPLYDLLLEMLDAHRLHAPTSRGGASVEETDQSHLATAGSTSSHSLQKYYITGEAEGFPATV

[3] = DRUGMATRIX: Platelet-Derived Growth Factor (PDGF) radioligand binding (ligand: [125I] PDGF); type: cell-based; settings: nih3t3; Not Active = under 50% inhibition at 10 µM
[4] = target: Receptor tyrosine-protein kinase erbB-2 (Homo sapiens, UniProt P04626); test: biochemical; type: cell-based, Insect cells; settings: insect cells;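 note: inhibition of HER2 kinase enzyme activity, measured with Poly(Glu:Tyr) as the phosphorylation substrate; in other assays of this panel Not Active means under 50% inhibition at 10 µM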
Chain of Receptor tyrosine-protein kinase erbB-2 (P04626 whole entry): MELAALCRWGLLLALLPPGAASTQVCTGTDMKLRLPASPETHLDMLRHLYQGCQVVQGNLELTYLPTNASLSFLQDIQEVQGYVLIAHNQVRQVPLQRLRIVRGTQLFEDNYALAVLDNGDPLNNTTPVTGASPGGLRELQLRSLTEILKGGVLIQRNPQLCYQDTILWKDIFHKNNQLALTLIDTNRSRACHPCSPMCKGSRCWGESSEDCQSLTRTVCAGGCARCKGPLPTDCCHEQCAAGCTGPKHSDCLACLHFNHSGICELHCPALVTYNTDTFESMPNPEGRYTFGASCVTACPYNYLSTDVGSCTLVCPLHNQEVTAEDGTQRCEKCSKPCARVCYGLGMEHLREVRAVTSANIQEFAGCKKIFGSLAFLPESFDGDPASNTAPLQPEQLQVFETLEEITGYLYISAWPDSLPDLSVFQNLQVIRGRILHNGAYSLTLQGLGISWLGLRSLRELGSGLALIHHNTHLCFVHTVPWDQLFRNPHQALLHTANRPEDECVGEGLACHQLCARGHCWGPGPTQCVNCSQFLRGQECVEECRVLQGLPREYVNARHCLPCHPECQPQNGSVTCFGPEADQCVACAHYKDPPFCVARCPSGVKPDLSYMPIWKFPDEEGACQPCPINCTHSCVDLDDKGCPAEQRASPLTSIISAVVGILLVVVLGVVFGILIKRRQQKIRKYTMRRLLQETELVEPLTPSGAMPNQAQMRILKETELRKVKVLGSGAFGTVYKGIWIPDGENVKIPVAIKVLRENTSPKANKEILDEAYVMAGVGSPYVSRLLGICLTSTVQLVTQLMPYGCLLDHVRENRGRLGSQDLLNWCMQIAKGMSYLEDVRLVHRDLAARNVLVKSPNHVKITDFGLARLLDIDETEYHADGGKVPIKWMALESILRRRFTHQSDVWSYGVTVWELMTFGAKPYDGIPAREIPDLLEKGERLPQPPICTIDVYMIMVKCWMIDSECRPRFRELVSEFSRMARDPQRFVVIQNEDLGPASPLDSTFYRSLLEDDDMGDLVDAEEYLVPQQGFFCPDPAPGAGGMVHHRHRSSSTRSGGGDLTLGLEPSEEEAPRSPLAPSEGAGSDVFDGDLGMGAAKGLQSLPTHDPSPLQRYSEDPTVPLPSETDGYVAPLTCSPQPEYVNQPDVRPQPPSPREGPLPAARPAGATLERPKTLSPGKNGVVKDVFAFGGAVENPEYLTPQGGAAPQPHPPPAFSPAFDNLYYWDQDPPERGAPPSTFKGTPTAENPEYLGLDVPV

[5] = target: T3, Cholecystokinin receptor type A (Homo sapiens, UniProt P32238); type: cell membranes, Membrane; settings: 1321-n1; note: in other assays of this panel Not Active means under 50% inhibition at 10 µM
T3 sequence (P32238 whole entry): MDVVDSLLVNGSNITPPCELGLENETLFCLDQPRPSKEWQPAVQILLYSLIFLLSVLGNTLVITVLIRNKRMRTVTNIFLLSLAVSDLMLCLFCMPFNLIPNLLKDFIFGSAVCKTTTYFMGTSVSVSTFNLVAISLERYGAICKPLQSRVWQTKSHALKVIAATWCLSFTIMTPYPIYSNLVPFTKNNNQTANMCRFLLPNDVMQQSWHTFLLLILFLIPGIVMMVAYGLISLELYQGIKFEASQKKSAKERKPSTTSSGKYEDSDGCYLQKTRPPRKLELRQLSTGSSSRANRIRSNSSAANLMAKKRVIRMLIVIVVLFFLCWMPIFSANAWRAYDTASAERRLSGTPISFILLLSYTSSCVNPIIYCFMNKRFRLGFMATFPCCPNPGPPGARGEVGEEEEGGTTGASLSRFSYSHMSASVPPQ

Glucocorticoid receptor = target: T4, Glucocorticoid receptor (Homo sapiens, UniProt P04150); settings: hela s3; note: in other assays of this panel Not Active means under 50% inhibition at 10 µM
T4 sequence (P04150 whole entry): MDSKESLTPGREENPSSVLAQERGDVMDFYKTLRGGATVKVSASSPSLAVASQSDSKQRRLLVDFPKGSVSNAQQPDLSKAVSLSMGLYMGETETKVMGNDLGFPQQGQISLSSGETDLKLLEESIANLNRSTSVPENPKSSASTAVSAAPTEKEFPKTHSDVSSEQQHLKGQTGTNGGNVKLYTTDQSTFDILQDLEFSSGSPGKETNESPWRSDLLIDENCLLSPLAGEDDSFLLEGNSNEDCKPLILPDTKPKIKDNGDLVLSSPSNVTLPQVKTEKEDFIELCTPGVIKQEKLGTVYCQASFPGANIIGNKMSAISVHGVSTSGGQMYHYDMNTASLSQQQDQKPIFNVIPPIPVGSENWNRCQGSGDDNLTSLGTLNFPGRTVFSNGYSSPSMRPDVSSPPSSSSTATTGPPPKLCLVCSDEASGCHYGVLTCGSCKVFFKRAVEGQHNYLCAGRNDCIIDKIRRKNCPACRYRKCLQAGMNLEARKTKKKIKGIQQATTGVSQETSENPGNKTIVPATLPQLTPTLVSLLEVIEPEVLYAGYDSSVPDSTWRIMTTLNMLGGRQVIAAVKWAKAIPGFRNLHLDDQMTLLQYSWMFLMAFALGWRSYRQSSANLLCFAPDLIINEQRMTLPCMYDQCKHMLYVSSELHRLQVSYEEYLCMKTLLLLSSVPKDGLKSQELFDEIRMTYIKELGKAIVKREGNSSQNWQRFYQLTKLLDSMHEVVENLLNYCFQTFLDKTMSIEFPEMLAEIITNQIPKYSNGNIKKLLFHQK

[6] = target: T5, Vasoactive intestinal polypeptide receptor 1 (Homo sapiens, UniProt P32241); type: cell membranes, Membrane; settings: ht-29; note: in other assays of this panel Not Active means under 50% inhibition at 10 µM
T5 sequence (P32241 whole entry): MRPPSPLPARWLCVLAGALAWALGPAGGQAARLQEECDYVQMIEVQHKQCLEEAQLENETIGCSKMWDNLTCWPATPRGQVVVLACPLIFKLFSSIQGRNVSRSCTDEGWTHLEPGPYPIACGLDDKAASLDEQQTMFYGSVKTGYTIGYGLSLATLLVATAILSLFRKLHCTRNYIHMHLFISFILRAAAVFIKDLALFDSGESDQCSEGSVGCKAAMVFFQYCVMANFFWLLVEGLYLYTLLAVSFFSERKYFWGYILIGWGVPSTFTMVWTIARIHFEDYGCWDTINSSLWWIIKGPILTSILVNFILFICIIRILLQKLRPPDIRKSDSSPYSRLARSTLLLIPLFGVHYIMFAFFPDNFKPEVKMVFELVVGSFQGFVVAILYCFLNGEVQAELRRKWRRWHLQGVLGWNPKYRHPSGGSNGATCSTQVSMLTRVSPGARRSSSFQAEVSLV

Fc1ccc([C@@H]2CCNC[C@H]2COc2ccc3c(c2)OCO3)cc1 [PAROXETINE]
Not Active: IC50 [1] | IC50 [2] | IC50 (Estrogen receptor) | IC50 [3] | Ki [3] | IC50 [4] | IC50 [5] | IC50 (Glucocorticoid receptor) | IC50 [6]

COC1=CC(=O)C[C@@H](C)[C@]12Oc1c(Cl)c(OC)cc(OC)c1C2=O [GRISEOFULVIN]
Not Active: IC50 [1] | IC50 [2] | IC50 (Estrogen receptor) | IC50 [3] | Ki [3] | IC50 [4] | IC50 [5] | IC50 (Glucocorticoid receptor) | IC50 [6]

CC[C@H](C)[C@H](N)C1=N[C@H](C(=O)N[C@@H](CC(C)C)C(=O)N[C@H](CCC(=O)O)C(=O)N[C@H](C(=O)N[C@H]2CCCCNC(=O)[C@H](CC(N)=O)NC(=O)[C@@H](CC(=O)O)NC(=O)[C@H](Cc3cnc[nH]3)NC(=O)[C@@H](Cc3ccccc3)NC(=O)[C@H]([C@@H](C)CC)NC(=O)[C@@H](CCCN)NC2=O)[C@@H](C)CC)CS1 [BACITRACIN] ({Ileψ(thiazoline)Cys}-L[dE]IK[dOrn]I[dF]H[dD]N; lactam 4-C)
Not Active: IC50 [2] | IC50 (Estrogen receptor) | IC50 [3] | Ki [3] | IC50 [4] | IC50 [5] | IC50 [6]

CN1CCC[C@H]1c1cccnc1 [NICOTINE]
Not Active: IC50 [1] | IC50 [2] | IC50 (Estrogen receptor) | IC50 [3] | Ki [3] | IC50 [4] | IC50 [5] | IC50 [6]

CCc1cccc2c3c([nH]c12)C(CC)(CC(=O)O)OCC3 (stereo unspecified) [ETODOLAC]
Not Active: IC50 [1] | IC50 [2] | IC50 (Estrogen receptor) | IC50 [3] | Ki [3] | IC50 [4] | IC50 [5] | IC50 [6]

CC(/C=C1\SC(=S)N(CC(=O)O)C1=O)=C\c1ccccc1
Not Active: IC50 [1] | IC50 [2] | IC50 (Estrogen receptor) | IC50 [3] | Ki [3] | IC50 [4] | IC50 [5] | IC50 [6]

CC(=O)[C@@]1(O)CC[C@H]2[C@@H]3C[C@H](C)C4=CC(=O)C=C[C@]4(C)[C@@]3(F)[C@@H](O)C[C@@]21C [FLUOROMETHOLONE]
Not Active: IC50 [1] | IC50 [2] | IC50 (Estrogen receptor) | IC50 [3] | Ki [3] | IC50 [4] | IC50 [5] | IC50 [6]

C[C@]12CCC(=O)C=C1CC[C@@H]1[C@@H]2C(=O)C[C@@]2(C)[C@H]1CC[C@]2(O)C(=O)CO [CORTISONE]
Not Active: IC50 [1] | IC50 [2] | IC50 (Estrogen receptor) | IC50 [3] | Ki [3] | IC50 [4] | IC50 [5] | IC50 [6]

CC(=O)O[C@]1(C(C)=O)CC[C@H]2[C@@H]3C=C(Cl)C4=CC(=O)CC[C@]4(C)[C@H]3CC[C@@]21C [CHLORMADINONE ACETATE]
Not Active: IC50 [1] | IC50 [2] | IC50 (Estrogen receptor) | IC50 [3] | Ki [3] | IC50 [4] | IC50 [5] | IC50 [6]

CCCc1cc(=O)[nH]c(=S)[nH]1 [PROPYLTHIOURACIL]
Not Active: IC50 [1] | IC50 [2] | IC50 (Estrogen receptor) | IC50 [3] | Ki [3] | IC50 [4] | IC50 [5] | IC50 [6]
